Assay results taken from patent publication US20170326125A1, “MULTISUBSTITUTED AROMATIC COMPOUNDS AS INHIBITORS OF THROMBIN” (VERSEON CORPORATION, priority 2016, published 2017).

system: malignant breast tumors; experiment: not given; conditions: at 4 weeks, treated mice; cited from earlier work

| Structure (SMILES) | reduction in tumor volume |
| --- | --- |
| CCCCCCOC(=O)NC(=N)c1ccc(NCc2nc3cc(C(=O)N(CCC(=O)OCC)c4ccccn4)ccc3n2C)cc1 [dabigatran etexilate] | 50% |

same assay, conditions: at 4 weeks; cited from earlier work

| Structure (SMILES) | weight loss in treated mice |
| --- | --- |
| CCCCCCOC(=O)NC(=N)c1ccc(NCc2nc3cc(C(=O)N(CCC(=O)OCC)c4ccccn4)ccc3n2C)cc1 [dabigatran etexilate] | no weight loss |

same assay, conditions: treated mice; cited from earlier work

| Structure (SMILES) | reduced tumor cells in the blood and liver micrometastases |
| --- | --- |
| CCCCCCOC(=O)NC(=N)c1ccc(NCc2nc3cc(C(=O)N(CCC(=O)OCC)c4ccccn4)ccc3n2C)cc1 [dabigatran etexilate] | 50-60% |

molecular target: T1, Human thrombin (Homo sapiens, UniProt P00734); experiment: Inhibition of the protease activity of thrombin (chromogenic substrate S-2238); format: biochemical; conditions: Table C; 3 nM thrombin, 125 μM S-2238, 10 min pre-incubation, RT
T1 construct: purchased Haematologic Technologies Inc

| IC50 | Structure (SMILES) |
| --- | --- |
| 0.1 to 1 µM | COc1ccccc1CNc1nc(-c2ccco2)nn1C(=O)c1ccc(C)cc1 [Cmpd 370, 3-(furan-2-yl)-N-[(2-methoxyphenyl)methyl]-1-[(4-methylphenyl)carbonyl]-1H-1,2,4-triazol-5-amine] |
| 0.1 to 1 µM | COc1ccc(CNc2nc(-c3ccco3)nn2C(=O)c2ccc(C)cc2)cc1 [Cmpd 371, 3-(furan-2-yl)-N-[(4-methoxyphenyl)methyl]-1-[(4-methylphenyl)carbonyl]-1H-1,2,4-triazol-5-amine] |
| 0.1 to 1 µM | O=C(c1cccnc1)n1nc(-c2cccnc2)nc1NCc1cccs1 [Cmpd 372, 3-(pyridin-3-yl)-1-[(pyridin-3-yl)carbonyl]-N-(thiophen-2-ylmethyl)-1H-1,2,4-triazol-5-amine] |
| > 1 µM | Nc1nc(-c2cccs2)n[nH]1 [Cmpd 373, 3-(thiophen-2-yl)-1H-1,2,4-triazol-5-amine] |
| < 0.1 µM | Cc1ccc(CNc2nc(-c3cccnc3)nn2C(=O)CC(C)C)cc1 [Cmpd 374, 3-methyl-1-(5-[(4-methylphenyl)methyl]amino-3-(pyridin-3-yl)-1H-1,2,4-triazol-1-yl)butan-1-one] |
| < 0.1 µM | CC(C)CC(=O)n1nc(-c2cccnc2)nc1NCc1cccs1 [Cmpd 375, 3-methyl-1-[3-(pyridin-3-yl)-5-[(thiophen-2-ylmethyl)amino]-1H-1,2,4-triazol-1-yl]butan-1-one] |
| > 1 µM | CCOC(=O)n1nc(-c2ccc(Cl)cc2)cc1N [Cmpd 376, ethyl 5-amino-3-(4-chlorophenyl)-1H-pyrazole-1-carboxylate] |
| > 1 µM | COC(=O)c1nc(NC(=O)c2ccc(Cl)cc2Cl)n[nH]1 [Cmpd 377, methyl 3-[(2,4-dichlorobenzene)amido]-1H-1,2,4-triazole-5-carboxylate] |
| > 1 µM | COC(=O)c1n[nH]c(NC(=O)C(C)(C)C)n1 [Cmpd 378, methyl 5-(2,2-dimethylpropanamido)-1H-1,2,4-triazole-3-carboxylate] |
| > 1 µM | COC(=O)c1n[nH]c(NC(=O)c2ccoc2C)n1 [Cmpd 379, methyl 5-(2-methylfuran-3-amido)-1H-1,2,4-triazole-3-carboxylate] |
| > 1 µM | COC(=O)c1n[nH]c(NC(=O)c2ccccc2C)n1 [Cmpd 380, methyl 5-[(2-methylbenzene)amido]-1H-1,2,4-triazole-3-carboxylate] |
| > 1 µM | COC(=O)c1n[nH]c(NC2=NCCCCC2)n1 [Cmpd 381, methyl 5-[(3,4,5,6-tetrahydro-2H-azepin-7-yl)amino]-1H-1,2,4-triazole-3-carboxylate] |
| > 1 µM | COC(=O)c1n[nH]c(NC(=O)c2cccc(C)c2)n1 [Cmpd 382, methyl 5-[(3-methylbenzene)amido]-1H-1,2,4-triazole-3-carboxylate] |
| > 1 µM | COC(=O)c1nnc(NC(=O)c2ccc(Br)cc2)[nH]1 [Cmpd 383, methyl 5-[(4-bromobenzene)amido]-1H-1,2,4-triazole-3-carboxylate] |
| 0.1 to 1 µM | COC(=O)c1nnc(NC(=O)c2ccc(F)cc2)[nH]1 [Cmpd 385, methyl 5-[(4-fluorobenzene)amido]-4H-1,2,4-triazole-3-carboxylate] |
| > 1 µM | COC(=O)c1n[nH]c(N=Cc2cccnc2)n1 [Cmpd 387, methyl 5-[(pyridin-3-ylmethylidene)amino]-1H-1,2,4-triazole-3-carboxylate] |
| > 1 µM | COC(=O)c1n[nH]c(NC(=O)CCc2ccc(C)cc2)n1 [Cmpd 388, methyl 5-[3-(4-methylphenyl)propanamido]-1H-1,2,4-triazole-3-carboxylate] |
| > 1 µM | O=C(Nc1ccc(Cl)cc1Cl)c1n[nH]c(Cn2cncn2)n1 [Cmpd 390, N-(2,4-dichlorophenyl)-5-(1H-1,2,4-triazol-1-ylmethyl)-4H-1,2,4-triazole-3-carboxamide] |
| > 1 µM | O=C(Nc1ccccc1Cl)c1nc(-n2cnnc2)n[nH]1 [Cmpd 391, N-(2-chlorophenyl)-3-(4H-1,2,4-triazol-4-yl)-1H-1,2,4-triazole-5-carboxamide] |

| IC50 | Structure (SMILES) |
| --- | --- |
| > 1 µM | O=C(Nc1ccc(Br)cc1)c1nc(-n2cnnc2)n[nH]1 [Cmpd 392, N-(4-bromophenyl)-3-(4H-1,2,4-triazol-4-yl)-1H-1,2,4-triazole-5-carboxamide] |
| > 1 µM | CCOc1ccc(NC(=O)c2nc(-n3cnnc3)n[nH]2)cc1 [Cmpd 393, N-(4-ethoxyphenyl)-3-(4H-1,2,4-triazol-4-yl)-1H-1,2,4-triazole-5-carboxamide] |
| < 0.1 µM | COc1ccccc1C(=O)n1nc(-c2ccccc2)nc1NCc1ccco1 [Cmpd 394, N-(furan-2-ylmethyl)-1-[(2-methoxyphenyl)carbonyl]-3-phenyl-1H-1,2,4-triazol-5-amine] |
| > 1 µM | CS(=O)(=O)n1nc(-c2cccnc2)nc1NCc1ccco1 [Cmpd 395, N-(furan-2-ylmethyl)-1-methanesulfonyl-3-(pyridin-3-yl)-1H-1,2,4-triazol-5-amine] |
| > 1 µM | O=C(c1cccnc1)n1nc(-c2cccnc2)nc1NCc1ccco1 [Cmpd 396, N-(furan-2-ylmethyl)-3-(pyridin-3-yl)-1-[(pyridin-3-yl)carbonyl]-1H-1,2,4-triazol-5-amine] |
| 0.1 to 1 µM | O=C(c1cccnc1)n1nc(-c2ccco2)nc1NCc1ccccc1Cl [Cmpd 397, N-[(2-chlorophenyl)methyl]-3-(furan-2-yl)-1-[(pyridin-3-yl)carbonyl]-1H-1,2,4-triazol-5-amine] |
| > 1 µM | COc1ccccc1CNc1nc(-c2cccnc2)nn1C(=O)c1cccnc1 [Cmpd 398, N-[(2-methoxyphenyl)methyl]-3-(pyridin-3-yl)-1-[(pyridin-3-yl)carbonyl]-1H-1,2,4-triazol-5-amine] |
| < 0.1 µM | Cc1ccc(C(=O)n2nc(-c3cccnc3)nc2NCc2ccc(F)cc2)cc1 [Cmpd 401, N-[(4-fluorophenyl)methyl]-1-[(4-methylphenyl)carbonyl]-3-(pyridin-3-yl)-1H-1,2,4-triazol-5-amine] |
| < 0.1 µM | O=C(c1ccco1)n1nc(-c2cccnc2)nc1NCc1ccc(F)cc1 [Cmpd 402, N-[(4-fluorophenyl)methyl]-1-[(furan-2-yl)carbonyl]-3-(pyridin-3-yl)-1H-1,2,4-triazol-5-amine] |
| < 0.1 µM | O=C(c1cccs1)n1nc(-c2cccnc2)nc1NCc1ccc(F)cc1 [Cmpd 403, N-[(4-fluorophenyl)methyl]-3-(pyridin-3-yl)-1-[(thiophen-2-yl)carbonyl]-1H-1,2,4-triazol-5-amine] |
| 0.1 to 1 µM | COc1ccc(CNc2nc(-c3cccnc3)nn2C(=O)c2ccc(C)cc2)cc1 [Cmpd 404, N-[(4-methoxyphenyl)methyl]-1-[(4-methylphenyl)carbonyl]-3-(pyridin-3-yl)-1H-1,2,4-triazol-5-amine] |
| > 1 µM | COc1ccc(CNc2nc(-c3cccnc3)nn2C(=O)c2cccs2)cc1 [Cmpd 405, N-[(4-methoxyphenyl)methyl]-3-(pyridin-3-yl)-1-[(thiophen-2-yl)carbonyl]-1H-1,2,4-triazol-5-amine] |
| > 1 µM | CC(=O)Nc1n[nH]c(NCc2ccccc2)n1 [Cmpd 406, N-[5-(benzylamino)-1H-1,2,4-triazol-3-yl]acetamide] |
| > 1 µM | O=C(Nc1n[nH]c(-c2ccco2)n1)c1ccccc1 [Cmpd 407, N-[5-(furan-2-yl)-1H-1,2,4-triazol-3-yl]benzamide] |
| < 0.1 µM | O=C(c1ccccc1Cl)n1nc(-c2ccco2)nc1NCc1ccccc1 [Cmpd 408, N-benzyl-1-[(2-chlorophenyl)carbonyl]-3-(furan-2-yl)-1H-1,2,4-triazol-5-amine] |
| < 0.1 µM | O=C(c1ccccc1Cl)n1nc(-c2cccs2)nc1NCc1ccccc1 [Cmpd 409, N-benzyl-1-[(2-chlorophenyl)carbonyl]-3-(thiophen-2-yl)-1H-1,2,4-triazol-5-amine] |
| < 0.1 µM | Cc1ccc(C(=O)n2nc(-c3cccnc3)nc2NCc2ccccc2)cc1 [Cmpd 411, N-benzyl-1-[(4-methylphenyl)carbonyl]-3-(pyridin-3-yl)-1H-1,2,4-triazol-5-amine] |
| > 1 µM | O=C(c1cccs1)n1nc(-c2cccs2)nc1NCc1ccccc1 [Cmpd 412, N-benzyl-3-(thiophen-2-yl)-1-[(thiophen-2-yl)carbonyl]-1H-1,2,4-triazol-5-amine] |
